From PMC11676834, “Composition of Triterpene Glycosides of the Far Eastern Sea Cucumber Cucumaria conicospermium Levin et Stepanov; Structure Elucidation of Five Minor Conicospermiumosides A3-1, A3-2, A3-3, A7-1, and A7-2; Cytotoxicity of the Glycosides Against Human Breast Cancer Cell Lines; Structure–Activity …” (Marine Drugs, 2024)
Where two headings read alike, the source gives them in different places.

Experiments:
human erythrocytes = assay: Hemolytic activity; type: cell-based; conditions: 1 h at 37 °C; for HC50: Erythrocyte, read-out: ED50, Erythrocytes (hemolytic activity)
Description: Human blood (B(III) Rh+) was used to obtain erythrocytes by centrifuging 450× g three times for 5 min with phosphate-buffered saline (PBS) (pH 7.4) at 4 °C on centrifuge LABOFUGE 400R (Heraeus, Hanau, Germany). Ice-cold PBS (pH 7.4) was used for resuspension of erythrocytes residue to a final optical density of 1.5 at 700 nm, which was kept on ice. Then, 10 µL of tested compound solution or control (okhotoside A1-1 (7)) were added to 90 µL of erythrocyte suspension in V-bottom 96-well plates and exposed for 1 h at 37 °C. Next, centrifugation at 900× g for 10 min on a laboratory centrifuge LMC-3000 (Biosan, Riga, Latvia), led to separation of layers, and 80 µL of supernatant was carefully decanted and transferred into new flat-plate for each. The values of erythrocyte lysis were measured on microplate photometer Multiskan FC (Thermo Fisher Scientific, Waltham, MA, USA) at λ = 570 nm as hemoglobin concentration in supernatant. The effective dose, causing lysis of 50% erythrocytes (ED50), was calculated with SigmaPlot 14.0 software. All the experiments were carried out in triple repetitions, p ≤ 0.05.

MDA-MB-231 cells [1] = assay: Colony formation (clonogenic) assay, MDA-MB-231; type: cell-based, human
Description: (§1) The influence of glycosides on colony formation by MCF-10A or MDA-MB-231 cells was tested by the clonogenic assay. Cell density: 0.3 × 10^2/mL for MDA-MB-231 and for MCF-10A cells per well; incubation conditions: 10–12 days, 37 °C, atmosphere with 5% CO2; obtained: visible to eye colonies (at least 50 cells per colony); fixation with methanol (25 min); staining with 0.5% solution of crystal violet (25 min); washing and air-drying of plates. The counting of grown colonies was carried out using a BIO-PRINT-Cx4 Edge-Fixed Pad-Container (Vilber, Collégien, France) using Bio-Vision Software user and service manual-v18.01 (Vilber, Collégien, France). The results are presented as colony inhibition in comparison with the control.

T-47D cells = assay: cells; type: cell-based, human; conditions: MTT, 24 h, read-out: Cytotoxicity, IC50, T-47D
Text: (§2) Human erythrocytes were purchased from the Station of Blood Transfusion, Vladivostok. Human mammary epithelial cell line MCF-10A CRL-10317, human breast cancer cell lines T-47D HTB-133, MCF-7 HTB-22, and MDA-MB-231 CRM-HTB-26 were received from ATCC (Manassas, VA, USA). Culturing conditions: medium of RPMI-1640 with 1% penicillin/streptomycin (Biolot, St. Petersburg, Russia) and 10% fetal bovine serum (FBS) (Biolot, St. Petersburg, Russia) for the T-47D cell line; Minimum Essential Medium (MEM) with 1% penicillin/streptomycin sulfate (Biolot, St. Petersburg, Russia) and FBS (Biolot, St. Petersburg, Russia) to a final concentration of 10% for MCF-7 and MDA-MB-231 cells; DMEM/F12 medium with 10% FBS, 20 ng/mL EGF, […] hydrocortisone, 100 ng/mL cholera toxin, 10 μg/mL insulin, and 1% penicillin/streptomycin (BioinnLabs, Rostov-on-Don, Russia) for MCF-10A cell line.
(§3) The concentrations of tested glycosides were 0.1–50 µM; positive controls were cisplatin and okhotoside A1-1 (7). Methodology: to each well of 96-well plates, the cell suspension (180 µL) with solution (20 µL) of tested glycoside in a certain concentration was placed (MCF-10A, MCF-7, T-47D, and MDA-MB-231—7 × 10^3 cells per well) and incubated in the atmosphere with 5% CO2 at 37 °C for 24 h. Then, the solutions of tested compounds with medium were replaced by 100 µL of fresh medium, and 10 µL of 3-(4,5-dimethylthiazol-2-yl)-2,5-diphenyltetrazolium bromide (MTT) (PanReac, AppliChem, Darmstadt, Germany) stock solution (5 mg/mL) was added to each well and incubated for 4 h, followed by the addition of 100 µL of SDS-HCl solution (1 g SDS/10 mL d-H2O/17 µL 6 N HCl) and further incubated for 18 h. Multiskan FC microplate photometer (Thermo Fisher Scientific, Waltham, MA, USA) was used to measure the absorbance of the converted dye formazan at 570 nm. The concentration caused the 50% cell metabolic activity inhibition (IC50) expresses the cytotoxic activity of each glycoside. The experiments were conducted in triplicate, p ≤ 0.05.

MCF-7 cells = assay: cells; type: cell-based, human; conditions: MTT, 24 h, read-out: Cytotoxicity, IC50, MCF-7
Text: as §2, §3

MCF-10A cells [2] = assay: in vitro; type: cell-based, human
Text: as §2
as §3, with “Methodology: to each well of 96-well plates, the cell suspension (180 µL) with solution (20 µL) of tested glycoside in a certain concentration was placed (MCF-10A, MCF-7, T-47D, and MDA-MB-231—7 × 10^3 cells per well) and incubated in the atmosphere with 5% CO2 at 37 °C for 24 h.” left out

MDA-MB-231 cells [3] = assay: cells; type: cell-based, human
Text: as §2
as §3, with “Methodology: to each well of 96-well plates, the cell suspension (180 µL) with solution (20 µL) of tested glycoside in a certain concentration was placed (MCF-10A, MCF-7, T-47D, and MDA-MB-231—7 × 10^3 cells per well) and incubated in the atmosphere with 5% CO2 at 37 °C for 24 h.” left out

MDA-MB-231 cells [4] = assay: Wound scratch migration assay; type: cell-based, human; conditions: 24 h
Description: Attached to special migration plate plastic bottom MDA-MB-231 cells were separated by a silicone insert (Culture-insert 2 Well 24, ibiTreat). After removing an insert, the gap between the cells was 500 ± 50 μm. Cell debris and floating cells were deleted, and the fresh culture medium was added. Then, cells were treated with various concentrations of glycosides or culture medium only (vehicle control) and left for 24 hrs. Cell migration into the wound area was observed under a fluorescence microscope (MIB-2-FL, LOMO, Russia) with objective 10× magnification.

in vitro = type: cell-based, human; conditions: human
Text: as §2
as §3, with “Methodology: to each well of 96-well plates, the cell suspension (180 µL) with solution (20 µL) of tested glycoside in a certain concentration was placed (MCF-10A, MCF-7, T-47D, and MDA-MB-231—7 × 10^3 cells per well) and incubated in the atmosphere with 5% CO2 at 37 °C for 24 h.” left out

MCF-10A cells [5] = assay: Colony formation (clonogenic) assay, MCF-10A; type: cell-based, human; conditions: 2 μM
Description: as §1

[6] = 48 h, read-out: Cytotoxicity, IC50, 48 h, MCF-10A
[7] = 72 h, read-out: Cytotoxicity, IC50, 72 h, MCF-10A
[8] = MTT, 24 h, read-out: Cytotoxicity, IC50, MCF-10A
[9] = Homo sapiens, MDA-MB-231, inhibition out of control, read-out: Inhibition of colony growth of MDA-MB-231 cells
[10] = Homo sapiens, MDA-MB-231, 48 h, read-out: Cytotoxicity, IC50, 48 h, MDA-MB-231
[11] = Homo sapiens, MDA-MB-231, 72 h, read-out: Cytotoxicity, IC50, 72 h, MDA-MB-231
[12] = Homo sapiens, MDA-MB-231, MTT, 24 h, read-out: Cytotoxicity, IC50, MDA-MB-231

Compound	Tumor cell selectivity index (SI), IC50 MCF-10A / IC50 MDA-MB-231 (MDA-MB-231 cells [3]; 24 h)	Tumor cell selectivity index (SI), IC50 MCF-10A / IC50 MDA-MB-231 (MDA-MB-231 cells [3]; 48 h)	Tumor cell selectivity index (SI), IC50 MCF-10A / IC50 MDA-MB-231 (MDA-MB-231 cells [3]; 72 h)	HC50 (human erythrocytes) [nM]	inhibition at 5 µM (MDA-MB-231 cells [1]; [9]) [%]	IC50 (T-47D cells; Homo sapiens, T47D) [µM]	IC50 (MCF-7 cells; Homo sapiens, MCF7) [µM]	IC50 (in vitro; [6]) [µM]	IC50 (in vitro; [7]) [µM]	IC50 (in vitro; [8]) [µM]	IC50 (MDA-MB-231 cells [3]; [10]) [µM]	IC50 (MDA-MB-231 cells [3]; [11]) [µM]	IC50 (MDA-MB-231 cells [3]; [12]) [µM]	further results
DS-okhotoside A1-1 [DS-okhotoside A1-1 (7a)]	2.76	1.20	1.42	–	–	–	–	–	–	–	–	–	–	ED50, Erythrocytes (hemolytic activity) (human erythrocytes): 0.24 ± 0.02 µM; Inhibition of colony growth of MDA-MB-231 cells (MDA-MB-231 cells [1]; 1 μM, inhibition out of control): 97.2%; IC50 (T-47D cells): 7.8 ± 0.31 µM; IC50 (MCF-7 cells): 18.8 ± 1.02 µM; IC50 (MCF-10A cells [2]; [6]): 5.18 ± 0.28 µM; IC50 (MCF-10A cells [2]; [7]): 3.87 ± 0.24 µM; IC50 (MCF-10A cells [2]; [8]): 7.81 ± 0.32 µM; IC50 (MDA-MB-231 cells [3]; 48 h, read-out: Cytotoxicity, IC50, 48 h, MDA-MB-231): 4.32 ± 0.3 µM; IC50 (MDA-MB-231 cells [3]; 72 h, read-out: Cytotoxicity, IC50, 72 h, MDA-MB-231): 2.73 ± 0.18 µM; IC50 (MDA-MB-231 cells [3]; MTT, 24 h, read-out: Cytotoxicity, IC50, MDA-MB-231): 2.83 ± 0.36 µM; Inhibition of migration of MDA-MB-231 cells as compared with control (MDA-MB-231 cells [4]; 0.5 μM): 61.2%; Constraint on cell motility (migration) of MDA-MB-231 cells (MDA-MB-231 cells [4]; 1 μM): 85%
CO[C@@H]1[C@@H](O)[C@H](O[C@@H]2[C@@H](O)[C@H](O[C@H]3[C@H](O)[C@@H](O[C@@H]4OC[C@@H](O)[C@H](O)[C@H]4O)[C@H](O[C@H]4[C@H](O[C@H]5CC[C@]6(C)C7CC[C@]8(C)[C@@H]([C@@](C)(O)C(=O)CC=C(C)C)CC[C@@]8(C)C7=CC[C@H]6C5(C)C)OC[C@@H](OS(=O)(=O)[O-])[C@@H]4O)O[C@@H]3C)O[C@H](COS(=O)(=O)[O-])[C@H]2O)O[C@H](CO)[C@H]1O.[Na+].[Na+] (stereo partly drawn) [Conicospermiumoside A3-3 (3), 3β-O-{3-O-methyl-β-D-glucopyranosyl-(1→3)-6-O-sodium sulfate-β-D-glucopyranosyl-(1→4)-[(1→2)-β-D-xylopyranosyl]-β-D-quinovopyranosyl-(1→2)-4-O-sodium sulfate-β-D-xylopyranosyl}-20R-hydroxy,22-oxolanosta-7,24-diene]	2.03	1.05	1.02	210 ± 20	98.8	10.7 ± 0.94	28.5 ± 1.18	10.6 ± 0.72	5.27 ± 0.36	11.4 ± 0.58	10.1 ± 0.71	5.18 ± 0.43	5.62 ± 0.26	inhibition at 2 µM (MDA-MB-231 cells [1]; Homo sapiens, MDA-MB-231, 2 μM, read-out: Inhibition of colony growth of MDA-MB-231 cells): 96.8%; inhibition at 2 µM (MDA-MB-231 cells [4]; Homo sapiens, MDA-MB-231, 2 μM, read-out: Inhibition of migration of MDA-MB-231 cells as compared with control): 63.7%
CO[C@@H]1[C@@H](O)[C@H](O[C@@H]2[C@@H](O)[C@H](O[C@H]3[C@H](O)[C@@H](O[C@@H]4OC[C@@H](O)[C@H](O)[C@H]4O)[C@H](O[C@H]4[C@H](O[C@H]5CC[C@]6(C)C7CC[C@]8(C)[C@@H]([C@@](C)(O)[C@H](O)CC=C(C)C)CC[C@@]8(C)C7=CC[C@H]6C5(C)C)OC[C@@H](OS(=O)(=O)[O-])[C@@H]4O)O[C@@H]3C)O[C@H](COS(=O)(=O)[O-])[C@H]2O)O[C@H](CO)[C@H]1O.[Na+].[Na+] (stereo partly drawn) [Conicospermiumoside A3-1 (1), 3β-O-{3-O-methyl-β-D-glucopyranosyl-(1→3)-6-O-sodium sulfate-β-D-glucopyranosyl-(1→4)-[(1→2)-β-D-xylopyranosyl]-β-D-quinovopyranosyl-(1→2)-4-O-sodium sulfate-β-D-xylopyranosyl}-20R,22R-dihydroxylanosta-7,24-diene]	2.29	11.97	3.14	770 ± 70	99.6	19.9 ± 1.02	41.7 ± 3.08	30.4 ± 1.05	39 ± 2.15	13.6 ± 0.71	2.54 ± 0.09	12.4 ± 0.75	5.93 ± 0.35	–
CO[C@@H]1[C@@H](O)[C@H](O[C@@H]2[C@@H](O)[C@H](O[C@H]3[C@H](O)[C@@H](O[C@@H]4OC[C@@H](O)[C@H](O)[C@H]4O)[C@H](O[C@H]4[C@H](O[C@H]5CC[C@]6(C)C7=CC[C@]8(C)[C@@H]([C@@](C)(O)C(=O)CC=C(C)C)CC[C@@]8(C)C7CC[C@H]6C5(C)C)OC[C@@H](OS(=O)(=O)[O-])[C@@H]4O)O[C@@H]3C)O[C@H](COS(=O)(=O)[O-])[C@H]2O)O[C@H](COS(=O)(=O)[O-])[C@H]1O.[Na+].[Na+].[Na+] (stereo partly drawn) [Conicospermiumoside A7-1 (4), 3β-O-{6-O-sodium sulfate-3-O-methyl-β-D-glucopyranosyl-(1→3)-6-O-sodium sulfate-β-D-glucopyranosyl-(1→4)-[(1→2)-β-D-xylopyranosyl]-β-D-quinovopyranosyl-(1→2)-4-O-sodium sulfate-β-D-xylopyranosyl}-(20R)-hydroxy-22-oxo-lanosta-9(11),24-diene]	–	2.32	0.99	360 ± 40	–	19.7 ± 1.01	> 50	35.5 ± 1.59	11.1 ± 0.57	40.2 ± 2.1	15.3 ± 1.01	11.2 ± 0.73	4.78 ± 0.23	Influence on colony formation and growth of MCF-10A cells (MCF-10A cells [5]): did not influence
